Reference: PubChem BioAssay (NCI)
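1) Cells in 96-well plates. 2) Compound, 48 h, 5 concentrations. 3) Linear interpolation between surrounding doses. 4) Unreached endpoint = highest concentration. GI50 = concentration required for 50% inhibition of growth. TGI marks complete inhibition of growth.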

Columns and labels:
Assay in all cases: NCI tumour cell line growth inhibition, 48 h
MOLT-4 leukemia = test system: MOLT-4 leukemia
SF-539 CNS = test system: SF-539 CNS
IGROV1 ovarian = test system: IGROV1 ovarian
OVCAR-3 ovarian = test system: OVCAR-3 ovarian
SW-620 colon = test system: SW-620 colon
UACC-257 melanoma = test system: UACC-257 melanoma
SNB-19 CNS = test system: SNB-19 CNS
NCI/ADR-RES ovarian = test system: NCI/ADR-RES ovarian
SR leukemia = test system: SR leukemia
HOP-92 NSCLC = test system: HOP-92 NSCLC
NCI-H226 lung = test system: NCI-H226 lung
SN12C renal = test system: SN12C renal
MALME-3M melanoma = test system: MALME-3M melanoma
ACHN renal = test system: ACHN renal
TK-10 renal = test system: TK-10 renal
UACC-62 melanoma = test system: UACC-62 melanoma
HCT-116 colon = test system: HCT-116 colon
UO-31 renal = test system: UO-31 renal
HCT-15 colon = test system: HCT-15 colon
K-562 leukemia = test system: K-562 leukemia
SK-MEL-28 melanoma = test system: SK-MEL-28 melanoma
OVCAR-8 ovarian = test system: OVCAR-8 ovarian
SNB-75 CNS = test system: SNB-75 CNS
HT29 colon = test system: HT29 colon
RPMI-8226 leukemia = test system: RPMI-8226 leukemia
T-47D breast = test system: T-47D breast
MDA-MB-435 = test system: MDA-MB-435
OVCAR-5 ovarian = test system: OVCAR-5 ovarian
MDA-MB-231 breast = test system: MDA-MB-231 breast
DU-145 prostate = test system: DU-145 prostate
RXF 393 renal = test system: RXF 393 renal
SF-295 CNS = test system: SF-295 CNS
SK-MEL-5 melanoma = test system: SK-MEL-5 melanoma
KM12 colon = test system: KM12 colon
A549 NSCLC = test system: A549 NSCLC
PC-3 prostate = test system: PC-3 prostate
CCRF-CEM leukemia = test system: CCRF-CEM leukemia
SK-OV-3 ovarian = test system: SK-OV-3 ovarian
HCC-2998 colon = test system: HCC-2998 colon
HL-60(TB) leukemia = test system: HL-60(TB) leukemia
NCI-H460 lung = test system: NCI-H460 lung
HS 578T breast = test system: HS 578T breast
NCI-H522 lung = test system: NCI-H522 lung
M14 melanoma = test system: M14 melanoma
CAKI-1 renal = test system: CAKI-1 renal
786-0 renal = test system: 786-0 renal
NCI-H23 lung = test system: NCI-H23 lung
COLO 205 colon = test system: COLO 205 colon
OVCAR-4 ovarian = test system: OVCAR-4 ovarian
A498 renal = test system: A498 renal
BT-549 breast = test system: BT-549 breast
HOP-62 NSCLC = test system: HOP-62 NSCLC
MCF7 breast = test system: MCF7 breast
SF-268 CNS = test system: SF-268 CNS

COC(=O)[C@H](Cc1cnc[nH]1)NC(=O)[C@@H](NC(=O)Nc1cc(C(F)(F)F)cc(C(F)(F)F)c1)C(C)C
GI50 (MOLT-4 leukemia): 12.5 µM | TGI (MOLT-4 leukemia): 32.2 µM | GI50 (SF-539 CNS): 17 µM | TGI (SF-539 CNS): 32.3 µM | GI50 (IGROV1 ovarian): 18.1 µM | TGI (IGROV1 ovarian): 36.1 µM | GI50 (OVCAR-3 ovarian): 14.7 µM | TGI (OVCAR-3 ovarian): 28.3 µM | GI50 (SW-620 colon): 18 µM | TGI (SW-620 colon): 35.5 µM | GI50 (UACC-257 melanoma): 15.7 µM | TGI (UACC-257 melanoma): 29.9 µM | GI50 (SNB-19 CNS): 10.9 µM | TGI (SNB-19 CNS): 23.2 µM | GI50 (NCI/ADR-RES ovarian): 33.7 µM | TGI (NCI/ADR-RES ovarian): > 100 µM | GI50 (SR leukemia): 13.2 µM | TGI (SR leukemia): 32.8 µM | GI50 (HOP-92 NSCLC): 5.33 µM | GI50 (NCI-H226 lung): 16.8 µM | TGI (NCI-H226 lung): 36 µM | GI50 (SN12C renal): 14.5 µM | TGI (SN12C renal): 28 µM | GI50 (MALME-3M melanoma): 16.9 µM | TGI (MALME-3M melanoma): 32.2 µM | GI50 (ACHN renal): 17.2 µM | TGI (ACHN renal): 33.4 µM | GI50 (TK-10 renal): 16.6 µM | TGI (TK-10 renal): 30.7 µM | GI50 (UACC-62 melanoma): 13.9 µM | TGI (UACC-62 melanoma): 27.2 µM | GI50 (HCT-116 colon): 18.9 µM | TGI (HCT-116 colon): 40.7 µM | GI50 (UO-31 renal): 15 µM | TGI (UO-31 renal): 29.5 µM | GI50 (HCT-15 colon): 18.2 µM | TGI (HCT-15 colon): 36 µM | GI50 (K-562 leukemia): 19.2 µM | TGI (K-562 leukemia): 40.5 µM | GI50 (SK-MEL-28 melanoma): 15.7 µM | TGI (SK-MEL-28 melanoma): 29.2 µM | GI50 (OVCAR-8 ovarian): 16.5 µM | TGI (OVCAR-8 ovarian): 31.6 µM | GI50 (SNB-75 CNS): 13.5 µM | TGI (SNB-75 CNS): 27 µM | GI50 (HT29 colon): 18.1 µM | TGI (HT29 colon): 33.8 µM | GI50 (RPMI-8226 leukemia): 16.1 µM | TGI (RPMI-8226 leukemia): 38.9 µM | GI50 (T-47D breast): 12.4 µM | TGI (T-47D breast): 28 µM | GI50 (MDA-MB-435): 17.3 µM | TGI (MDA-MB-435): 34.3 µM | GI50 (OVCAR-5 ovarian): 16.5 µM | TGI (OVCAR-5 ovarian): 31.1 µM | GI50 (MDA-MB-231 breast): 12.4 µM | TGI (MDA-MB-231 breast): 25.3 µM | GI50 (DU-145 prostate): 17.8 µM | TGI (DU-145 prostate): 32.7 µM | GI50 (RXF 393 renal): 13.6 µM | TGI (RXF 393 renal): 27.5 µM | GI50 (SF-295 CNS): 16.1 µM | TGI (SF-295 CNS): 31.8 µM | GI50 (SK-MEL-5 melanoma): 17.1 µM | TGI (SK-MEL-5 melanoma): 31.1 µM | GI50 (KM12 colon): 18.4 µM | TGI (KM12 colon): 35.3 µM | GI50 (A549 NSCLC): 16.7 µM | TGI (A549 NSCLC): 32.7 µM | GI50 (PC-3 prostate): 14.5 µM | TGI (PC-3 prostate): 28.4 µM | GI50 (CCRF-CEM leukemia): 14.7 µM | TGI (CCRF-CEM leukemia): 35.6 µM | GI50 (SK-OV-3 ovarian): 18.5 µM | TGI (SK-OV-3 ovarian): 32.5 µM | GI50 (HCC-2998 colon): 15.9 µM | TGI (HCC-2998 colon): 30.7 µM | GI50 (HL-60(TB) leukemia): 20.2 µM | TGI (HL-60(TB) leukemia): 39.3 µM | GI50 (NCI-H460 lung): 18.7 µM | TGI (NCI-H460 lung): 37.3 µM | GI50 (HS 578T breast): 16.8 µM | TGI (HS 578T breast): 47.6 µM | GI50 (NCI-H522 lung): 13.1 µM | TGI (NCI-H522 lung): 27 µM | GI50 (M14 melanoma): 16.8 µM | TGI (M14 melanoma): 34 µM | GI50 (CAKI-1 renal): 15.9 µM | TGI (CAKI-1 renal): 32.7 µM | GI50 (786-0 renal): 18.9 µM | TGI (786-0 renal): 38.6 µM | GI50 (NCI-H23 lung): 16.4 µM | TGI (NCI-H23 lung): 31.7 µM | GI50 (COLO 205 colon): 15.2 µM | TGI (COLO 205 colon): 29.4 µM | GI50 (OVCAR-4 ovarian): 15 µM | TGI (OVCAR-4 ovarian): 29 µM | GI50 (A498 renal): 13 µM | TGI (A498 renal): 27.3 µM | GI50 (BT-549 breast): 16.9 µM | TGI (BT-549 breast): 33.3 µM | GI50 (HOP-62 NSCLC): 19 µM | TGI (HOP-62 NSCLC): 33.7 µM | GI50 (MCF7 breast): 14.4 µM | TGI (MCF7 breast): 29.6 µM | GI50 (SF-268 CNS): 15.2 µM | TGI (SF-268 CNS): 31.1 µM
